Tested on: HCT-116
Assay: Cytotoxicity against human HCT116 cells
Assay type: functional, cell-based

SMILES | IC50 [µM]
O=C1N2[C@H]3[C@H](C[C@]24SS[C@]12C[C@H]1[C@@H]([C@@H](O)CC[C@@H]1O)N2C4=O)[C@@H](O)CC[C@@H]3O [ROSTRATIN A] | 9
O=C1CC[C@H](O)[C@H]2[C@@H]1C[C@@]13SS[C@]4(C[C@@H]5C(=O)CC[C@H](O)[C@@H]5N4C1=O)C(=O)N23 [ROSTRATIN B] | 4.4
CO[C@H]1CC(=O)[C@H]2C[C@@]34SS[C@]5(C[C@@H]6C(=O)C[C@H](OC)[C@H](O)[C@@H]6N5C3=O)C(=O)N4[C@H]2[C@H]1O [ROSTRATIN C] | 1.6
O=C1C[C@@H](S)[C@H](O)[C@H]2[C@@H]1C[C@@]13SS[C@]4(C[C@@H]5C(=O)C[C@@H](S)[C@H](O)[C@@H]5N4C1=O)C(=O)N23 [ROSTRATIN D] | 35
